Laboratory results as given in publication PMC7232442, “Biofilm Eradication by Symmetrical Selenoesters for Food-Borne Pathogens” (Microorganisms, 2020).
In brackets after ≈: the same amount, converted by molar mass. Entries after “also recorded” stand apart in the source; their conditions may differ. Where a name gives a salt, the structure may show the parent alone.

How the values were obtained:
S. aureus ATCC 25923 [1] = test: Real-time ethidium bromide accumulation assay; format: cell-based, Staphylococcus aureus; parameters: key to Relative Fluorescence Index (RFI): RFI = (RFtreated − RFuntreated)/RFuntreated at minute 60; details: for Relative Fluorescence Index (RFI): S. aureus ATCC 25923, ½ MIC, minute 60; for EPI activity (in words): reference (sensitive) S. aureus, 60 min
Experimental: (§1) The impact of compounds on EB accumulation was determined by the automated EB method using a CLARIOstar Plus plate reader (BMG Labtech, UK). Firstly, the bacterial strain was incubated until it reached an optical density (OD) of 0.6 at 600 nm. The culture was washed with phosphate buffered saline (PBS; pH 7.4) and centrifuged at 13,000× g for 3 min, the cell pellet was re-suspended in PBS. The compounds were added at ½ MIC concentration to PBS containing a non-toxic concentration of EB (1 µg/mL). Then, 50 μL of the EB solution containing the compound were transferred into 96-well black microtiter plate (Greiner Bio-One Hungary Kft, Hungary), and 50 μL of bacterial suspension (OD600 0.6) were added to the each well. Then, the plates were placed into the CLARIOstar plate reader, and the fluorescence was monitored at excitation and emission wavelengths of 530 nm and 600 nm every minute for one hour on a real-time basis. From the real-time data, the activity of the compounds, namely the relative fluorescence index (RFI) of the last time point (minute 60) of the EB accumulation assay, was calculated according to the following formula:RFI = (RFtreated − RFuntreated)/RFuntreated(2) where RFtreated is the relative fluorescence (RF) at the last time point of EB retention curve in the presence of an inhibitor, and RFuntreated is the RF at the last time point of the EB retention curve of the untreated control having the solvent control (DMSO).

[2] = test system: S. Typhimurium SE03 ΔacrA; test: Real-time ethidium bromide accumulation assay; format: cell-based, Salmonella enterica serovar Typhimurium; details: S. Typhimurium SE03 ΔacrA; ½ MIC; minute 60
Experimental: as §1

[3] = test system: S. Typhimurium SE39 ΔtolC; test: Real-time ethidium bromide accumulation assay; format: cell-based, Salmonella enterica serovar Typhimurium; details: S. Typhimurium SE39 ΔtolC; ½ MIC; minute 60
Experimental: as §1

[4] = test system: S. Typhimurium SE03 ΔacrA; test: MIC determination by microdilution method; format: cell-based, Salmonella enterica serovar Typhimurium; details: Salmonella enterica
Experimental: (§2) The minimum inhibitory concentrations (MICs) of compounds were determined according to the Clinical and Laboratory Standard Institute guidelines (CLSI). MIC values of the compounds were determined by visual inspection. The solvent was also assayed to ensure there was no antibacterial effect and the concentration (1 v/v%) applied in the assays had no antibacterial activity. DMSO was used at subinhibitory concentration (1 v/v%) in the assays.

[5] = test system: S. Typhimurium SE02 ΔacrB; test: MIC determination by microdilution method; format: cell-based, Salmonella enterica serovar Typhimurium; details: Salmonella enterica
Experimental: as §2

[6] = test system: S. Typhimurium SE39 ΔtolC; test: MIC determination by microdilution method; format: cell-based, Salmonella enterica serovar Typhimurium; details: Salmonella enterica
Experimental: as §2

[7] = test system: S. Typhimurium SE01 Wild-Type; test: MIC determination by microdilution method; format: cell-based, Salmonella enterica serovar Typhimurium; details: Salmonella enterica; S. Typhimurium SE01 wild-type; read-out: MIC
Experimental: as §2

S. aureus MRSA 272123 [8] = test: Real-time ethidium bromide accumulation assay; format: cell-based, Staphylococcus aureus; details: for Relative Fluorescence Index (RFI): S. aureus MRSA 272123, ½ MIC, minute 60; for EPI activity (in words): resistant S. aureus MRSA, 60 min
Experimental: as §1

S. aureus MRSA 272123 [9] = test: MIC determination by microdilution method; format: cell-based; details: Staphylococcus aureus; S. aureus MRSA 272123; read-out: MIC
Experimental: as §2

[10] = test system: Staphylococcus aureus ATCC 25923; test: MIC determination by microdilution method; format: cell-based; details: S. aureus ATCC 25923
Experimental: as §2

S. aureus MRSA 272123 [11] = test: Resistance modulation assay (checkerboard) with TET or CIP; format: cell-based, Staphylococcus aureus; details: for Interaction with CIP: MRSA strain; for X-fold reduction of MIC of CIP / MIC of the antibiotic alone: S. aureus MRSA 272123; for X-fold reduction of MIC of CIP: compound at ½ MIC, with CIP; for MIC of the antibiotic alone: no selenocompound
Experimental: (§3) The resistance modulation effect of compounds with ciprofloxacin (CIP) and tetracycline (TET) antibiotics were evaluated by the checkerboard method on S. aureus strains. Briefly, CIP or TET was diluted in a 96-well microtiter plate by two-fold serial dilution in MH broth and then the compounds were added at subinhibitory concentrations (½ MIC). In this assay, only the tested compounds with well-defined MIC values were tested. Finally, 10^−4 dilution of the overnight bacterial culture in MH was added to each well. The final volume was 200 µL in each well. The microtiter plates were incubated at 37 °C for 18 h. MIC values in the presence of the antibiotics alone and in combination with Se-compounds were determined by visual inspection.

S. aureus ATCC 25923 [12] = test: as above; format: cell-based, Staphylococcus aureus; details: for MIC of the antibiotic alone: no selenocompound
Experimental: as §3

[13] = test system: MRC-5 human embryonal lung fibroblast cells; test: Cytotoxicity assay (MTT); format: cell-based; details: MRC-5 cells
Experimental: The adherent MRC-5 human embryonal lung fibroblast cells were cultured in 96-well flat-bottomed microtiter plates, using EMEM supplemented with 10% heat-inactivated fetal bovine serum. The density of the cells was adjusted to 1 × 10^4 cells in 100 μL per well, the cells were seeded overnight at 37 °C, 5% CO2, then the medium was removed from the plates containing the cells, and the dilutions of selenocompounds previously made in a separate plate were added to the cells in 200 μL.
The culture plates were incubated at 37 °C for 24 h; at the end of the incubation period, 20 μL of MTT (thiazolyl blue tetrazolium bromide, Sigma) solution (from a stock solution of 5 mg/mL) was added to each well. After incubation at 37 °C for 4 h, 100 μL of sodium dodecyl sulfate (SDS; Sigma) solution (10% in 0.01 M HCI) was added to each well and the plates were further incubated at 37 °C overnight. Cell growth was determined by measuring the optical density (OD) at 540/630 nm with Multiscan EX ELISA reader (Thermo Labsystems, Cheshire, WA, USA). Inhibition of the cell growth was determined according to the formula below:IC50 = 100 − [(ODsample − ODmedium control)/(ODcell control − ODmedium control)] × 100(1)
Results are expressed in terms of IC50, defined as the inhibitory dose that reduces the growth of the cells exposed to the tested compounds by 50%.

[14] = test system: S. Typhimurium SE02 ΔacrB; test: Real-time ethidium bromide accumulation assay; format: cell-based, Salmonella enterica serovar Typhimurium; details: S. Typhimurium SE02 ΔacrB; ½ MIC; minute 60
Experimental: as §1

[15] = test system: S. Typhimurium SE01 Wild-Type; test: Real-time ethidium bromide accumulation assay; format: cell-based, Salmonella enterica serovar Typhimurium; details: ½ MIC, minute 60
Experimental: as §1

[16] = test system: reference S. aureus strain (ATCC 25923); test: Biofilm formation using crystal violet; format: cell-based, Staphylococcus aureus
Experimental: (§4) The anti-biofilm effect of the tested compounds against S. aureus strains and wild-type S. Typhimurium SE01 was measured using crystal violet (CV; 0.1% (v/v)). This dye is used to detect the total biofilm biomass formed. Overnight cultures were diluted to OD of 0.1 at 600 nm in TSB medium. Then, the bacterial cultures were added to 96-well microtiter plates and the compounds were added at ½ MIC concentration. The final volume was 200 μL in each well. The microtiter plates were incubated at 30 °C for 48 h with gentle agitation (100 rpm). After the incubation period, TSB medium was discarded, and the plates were washed with tap water to remove unattached cells. Then 200 μL crystal violet was added to the wells and incubated for 15 min at room temperature. Then, CV was removed from the wells and the plates were washed again with tap water, and 200 μL of 70% ethanol was added to the wells. Finally, the biofilm formation was determined by measuring the OD at 600 nm using Multiscan EX ELISA plate reader (Thermo Labsystems, Cheshire, WA, USA). The anti-biofilm effect of compounds was expressed in the percentage (%) of decrease in biofilm formation.

S. aureus MRSA = test: Biofilm formation using crystal violet; format: cell-based, Staphylococcus aureus
Experimental: as §4

[17] = test system: C. violaceum 026 sensor strain with AHL producer E. cloacae 31298 (violacein production); test: Quorum sensing (QS) inhibition, parallel inoculation disk diffusion; format: cell-based, Chromobacterium violaceum; details: disc with 10 μL compound, starting concentration ½ MIC; 24–48 h
Experimental: The QS inhibitory effect of selenocompounds was examined on the AHL producer E. cloacae strain and C. violaceum sensor bacterial strain. These strains were inoculated in parallel. The QS inhibition was monitored by agar diffusion method on LB* agar plate as described previously. Filter paper discs (7.0 mm in diameter) were placed between the parallel inoculated strains and impregnated with 10 μL compounds. Starting concentration of the compounds was ½ MIC. The agar plates were incubated at room temperature (20 °C) for 24–48 h and the inhibition of violacein production was measured.

[18] = Staphylococcus aureus, ATCC25923

| Compound | Relative Fluorescence Index (RFI) (S. aureus ATCC 25923 [1]) | Relative Fluorescence Index (RFI) [2] | Relative Fluorescence Index (RFI) [3] | MIC [6] [µM] | MIC [7] [µM] | Relative Fluorescence Index (RFI) (S. aureus MRSA 272123 [8]) | MIC (S. aureus MRSA 272123 [9]) [µM] | MIC [10] [µM] | MIC [10, 18] [µM] | IC50 ([13]; Homo sapiens, MRC5, 24 h) [µM] | Relative Fluorescence Index (RFI) [14] | Relative Fluorescence Index (RFI) [15] | QS zone of inhibition [17] [mm] | further results |
| --- | --- | --- | --- | --- | --- | --- | --- | --- | --- | --- | --- | --- | --- | --- |
| COC(=O)C[Se]C(=O)c1cc(C(=O)[Se]CC(=O)OC)cc(C(=O)[Se]CC(=O)OC)c1 [Se-E3] | 4.15 | 0.27 | 0.25 | > 100 | > 100 | 0.47 | 100 (≈ 61.5 µg/mL) | 12.5 (≈ 7.69 µg/mL) | 12.5 (≈ 7.69 µg/mL) | > 75 | 0.08 | 0.26 |  | EPI activity (in words) (S. aureus ATCC 25923 [1]): most prominent EPI activity; also recorded: significantly effective pump inhibition; MIC [4]: > 100 µM; MIC [5]: > 100 µM; EPI activity (in words) (S. aureus MRSA 272123 [8]): most prominent EPI activity; also recorded: significantly effective pump inhibition; Interaction with CIP (S. aureus MRSA 272123 [11]): synergism; X-fold reduction of MIC of CIP (S. aureus MRSA 272123 [11]): 2 fold; X-fold reduction of MIC of TET (S. aureus ATCC 25923 [12]; S. aureus ATCC 25923, compound at ½ MIC, with TET): 2 fold; Interaction with TET (S. aureus ATCC 25923 [12]; methicillin-susceptible S. aureus ATCC 25923): synergism; IC50 ([13]; 24 h): 76.6 µM; Anti-biofilm effect (in words) ([16]; sensitive (reference) S. aureus): significant biofilm inhibition; Anti-biofilm effect (in words) (S. aureus MRSA): significant biofilm inhibition |
| CC(=O)C[Se]C(=O)c1cccc(C(=O)[Se]CC(C)=O)c1 [Se-K2] | 0.11 | 0.20 | 0.26 | 100 (≈ 40.4 µg/mL) | 50 (≈ 20.2 µg/mL) | −0.07 | 1.56 (≈ 0.631 µg/mL) | 0.39 (≈ 0.158 µg/mL) | 0.39 (≈ 0.158 µg/mL) | 1.34 | 0.13 | −0.04 | 40 | Biofilm inhibition ([16]; reference S. aureus, ½ MIC, 48 h): 30.3%; Anti-biofilm effect (in words) (S. aureus MRSA): promoted the biofilm formation |
| O=C(O)c1cn(C2CC2)c2cc(N3CCNCC3)c(F)cc2c1=O [CIP, ciprofloxacin-hydrochloride, reference compound] |  |  |  |  |  |  |  |  |  |  |  |  |  | MIC of the antibiotic alone (S. aureus MRSA 272123 [11]): 33.99 µM; MIC of the antibiotic alone (S. aureus ATCC 25923 [12]; S. aureus ATCC 25923): 1.06 µM |
| CC(=O)C[Se]C(=O)c1ccc(C(=O)[Se]CC(C)=O)cc1 [Se-K1] | 0.1 | 0.17 | 0.27 |  | 50 (≈ 20.2 µg/mL) | −0.15 | 1.56 (≈ 0.631 µg/mL) | 0.39 (≈ 0.158 µg/mL) | 0.39 (≈ 0.158 µg/mL) | 0.54 | 0.10 | −0.16 | 37 | Interaction with CIP (S. aureus MRSA 272123 [11]): synergism; X-fold reduction of MIC of CIP (S. aureus MRSA 272123 [11]): 2 fold |
| CN(C)[C@@H]1C(O)=C(C(N)=O)C(=O)[C@@]2(O)C(O)=C3C(=O)c4c(O)cccc4[C@@](C)(O)[C@H]3C[C@@H]12 [TET, tetracycline-hydrochloride, reference compound] |  |  |  |  |  |  |  |  |  |  |  |  |  | MIC of the antibiotic alone (S. aureus MRSA 272123 [11]): 14.06 µM; MIC of the antibiotic alone (S. aureus ATCC 25923 [12]; S. aureus ATCC 25923): 0.88 µM |
| CC(CN1c2ccccc2Sc2ccccc21)N(C)C (stereo not drawn) [Promethazine, promethazine, reference compound] |  |  |  |  |  |  |  |  |  |  |  |  | 46 |  |
| COC(=O)C[Se]C(=O)c1ccc(C(=O)[Se]CC(=O)OC)cc1 [Se-E1] | 0.98 | 0.03 | 0.15 | > 100 | > 100 | 0.19 | 100 (≈ 43.6 µg/mL) | 12.5 (≈ 5.45 µg/mL) | 12.5 (≈ 5.45 µg/mL) | > 75 | −0.03 | −0.10 | 41 | EPI activity (in words) (S. aureus ATCC 25923 [1]): effective; MIC [4]: > 100 µM; MIC [5]: > 100 µM; EPI activity (in words) (S. aureus MRSA 272123 [8]): effective; IC50 ([13]; 24 h): 77.9 µM |
